Results from ChEMBL document CHEMBL5696442, “Discovery of type II inhibitors of TGFβ-activated kinase 1 (TAK1) and mitogen-activated protein kinase kinase kinase kinase 2 (MAP4K2)” (J Med Chem, 2015).

Tests used:
[1] = Inhibition of KHS1 K2 labeling site in human Huh-7 cells at 10 uM by KiNativ Profiling analysis relative to control; conditions: condition cancer
[2] = target: Ribosomal protein S6 kinase alpha-1 (Homo sapiens) (UniProt Q15418); assay: Inhibition of RSK1 Protein Kinase Domain in human A-375 cells at 5 uM by KiNativ Profiling analysis relative to control; type: cell-based
Ribosomal protein S6 kinase alpha-1 (Homo sapiens), sequence (Q15418 whole entry, the tested form may be a part): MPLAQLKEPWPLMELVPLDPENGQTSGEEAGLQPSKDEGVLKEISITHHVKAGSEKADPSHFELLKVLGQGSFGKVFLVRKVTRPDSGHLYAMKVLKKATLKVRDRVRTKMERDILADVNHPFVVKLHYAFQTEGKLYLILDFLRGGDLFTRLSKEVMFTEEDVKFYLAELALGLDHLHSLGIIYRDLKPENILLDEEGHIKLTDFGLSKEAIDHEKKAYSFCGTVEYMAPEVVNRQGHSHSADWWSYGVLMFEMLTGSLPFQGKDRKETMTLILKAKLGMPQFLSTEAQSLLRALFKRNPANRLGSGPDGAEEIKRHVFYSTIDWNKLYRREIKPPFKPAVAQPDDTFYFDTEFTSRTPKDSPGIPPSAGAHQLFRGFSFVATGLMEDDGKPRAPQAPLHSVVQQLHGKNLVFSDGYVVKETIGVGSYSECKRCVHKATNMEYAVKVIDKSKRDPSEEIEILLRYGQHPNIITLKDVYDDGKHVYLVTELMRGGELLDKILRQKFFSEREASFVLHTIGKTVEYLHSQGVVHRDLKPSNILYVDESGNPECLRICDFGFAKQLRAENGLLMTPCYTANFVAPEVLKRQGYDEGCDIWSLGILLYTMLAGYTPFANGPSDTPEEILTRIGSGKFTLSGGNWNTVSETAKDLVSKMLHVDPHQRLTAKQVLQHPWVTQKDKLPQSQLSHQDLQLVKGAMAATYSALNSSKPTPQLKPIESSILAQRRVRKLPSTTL

[3] = target: Mitogen-activated protein kinase 7 (Homo sapiens) (UniProt Q13164); assay: Inhibition of Erk5 K2 labeling site in human Huh-7 cells at 10 uM by KiNativ Profiling analysis relative to control; type: cell-based
Mitogen-activated protein kinase 7 (Homo sapiens), sequence (Q13164 2-816 limits assumed): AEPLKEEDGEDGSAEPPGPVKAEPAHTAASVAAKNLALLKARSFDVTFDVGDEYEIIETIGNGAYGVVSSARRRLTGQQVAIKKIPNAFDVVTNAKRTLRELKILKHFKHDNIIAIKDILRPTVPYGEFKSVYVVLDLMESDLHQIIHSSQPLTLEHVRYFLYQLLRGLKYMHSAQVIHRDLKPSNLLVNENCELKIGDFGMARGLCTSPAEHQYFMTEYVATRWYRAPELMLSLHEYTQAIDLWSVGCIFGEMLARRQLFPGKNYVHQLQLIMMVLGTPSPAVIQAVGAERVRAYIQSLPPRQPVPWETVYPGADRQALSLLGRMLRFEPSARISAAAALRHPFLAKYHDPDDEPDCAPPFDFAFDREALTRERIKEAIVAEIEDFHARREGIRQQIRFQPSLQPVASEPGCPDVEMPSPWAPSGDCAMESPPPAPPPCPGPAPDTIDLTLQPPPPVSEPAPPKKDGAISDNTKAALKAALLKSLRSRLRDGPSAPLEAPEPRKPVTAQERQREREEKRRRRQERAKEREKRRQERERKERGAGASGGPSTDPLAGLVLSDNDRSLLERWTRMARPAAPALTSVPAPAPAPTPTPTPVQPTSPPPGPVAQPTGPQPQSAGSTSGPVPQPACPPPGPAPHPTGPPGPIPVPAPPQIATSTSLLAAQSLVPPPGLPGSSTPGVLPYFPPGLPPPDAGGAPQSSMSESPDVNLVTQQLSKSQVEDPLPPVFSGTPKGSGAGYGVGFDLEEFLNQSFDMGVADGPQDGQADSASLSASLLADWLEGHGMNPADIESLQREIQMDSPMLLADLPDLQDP

[4] = target: Cyclin-dependent kinase 11B (Homo sapiens) (UniProt P21127); assay: Inhibition of CDC2L1 (unknown origin) at 10 uM by Ambit Kinomescan binding assay relative to control; values are per cent of control
Cyclin-dependent kinase 11B (Homo sapiens), sequence (P21127 whole entry): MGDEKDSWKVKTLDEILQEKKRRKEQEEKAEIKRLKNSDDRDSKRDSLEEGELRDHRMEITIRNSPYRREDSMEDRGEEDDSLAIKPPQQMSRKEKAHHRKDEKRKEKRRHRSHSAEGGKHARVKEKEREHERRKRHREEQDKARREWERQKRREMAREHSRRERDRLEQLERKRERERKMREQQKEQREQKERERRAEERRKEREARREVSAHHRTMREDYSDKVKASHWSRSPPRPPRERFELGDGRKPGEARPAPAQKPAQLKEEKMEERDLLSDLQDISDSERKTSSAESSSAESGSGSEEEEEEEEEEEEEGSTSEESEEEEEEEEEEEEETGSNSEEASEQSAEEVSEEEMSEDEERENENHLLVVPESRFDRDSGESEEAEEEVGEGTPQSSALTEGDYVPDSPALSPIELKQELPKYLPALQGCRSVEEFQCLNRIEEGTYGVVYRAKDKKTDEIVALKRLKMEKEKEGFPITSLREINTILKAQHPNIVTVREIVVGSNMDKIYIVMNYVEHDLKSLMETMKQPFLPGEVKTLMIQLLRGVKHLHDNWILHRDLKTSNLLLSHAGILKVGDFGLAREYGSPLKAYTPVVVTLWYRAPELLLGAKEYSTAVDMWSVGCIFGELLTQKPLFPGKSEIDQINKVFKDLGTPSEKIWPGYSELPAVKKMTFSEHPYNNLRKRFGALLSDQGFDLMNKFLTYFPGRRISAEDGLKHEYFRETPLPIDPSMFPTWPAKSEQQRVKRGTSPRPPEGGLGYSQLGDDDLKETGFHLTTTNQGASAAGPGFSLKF

[5] = target: Serine/threonine-protein kinase 10 (Homo sapiens) (UniProt O94804); assay: Inhibition of LOK Lys1 labeling site harbouring ETGALAAAKVIETK in human A-375 cells at 5 uM by KiNativ Profiling analysis relative to control; type: cell-based
[6] = target: T1, Phosphatidylinositol 5-phosphate 4-kinase type-2 gamma (Homo sapiens) (UniProt Q8TBX8); assay: Inhibition of PIP4K2C ATP labeling site harbouring VKELPTLKDMDFLNK in human A-375 cells at 5 uM by KiNativ Profiling analysis relative to control; type: cell-based
T1 sequence (whole entry): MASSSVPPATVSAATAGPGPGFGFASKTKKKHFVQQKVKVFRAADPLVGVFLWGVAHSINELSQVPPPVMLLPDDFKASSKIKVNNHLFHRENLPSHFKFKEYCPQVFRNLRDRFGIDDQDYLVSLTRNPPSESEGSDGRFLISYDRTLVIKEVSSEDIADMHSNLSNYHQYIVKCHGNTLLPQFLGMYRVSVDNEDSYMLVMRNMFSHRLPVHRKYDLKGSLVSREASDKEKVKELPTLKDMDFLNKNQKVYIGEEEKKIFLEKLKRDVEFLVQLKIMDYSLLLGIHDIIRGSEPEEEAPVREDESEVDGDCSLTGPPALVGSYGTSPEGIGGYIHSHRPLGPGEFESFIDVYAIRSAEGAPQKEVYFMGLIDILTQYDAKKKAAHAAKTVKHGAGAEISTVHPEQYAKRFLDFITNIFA

[7] = target: T2, Mitogen-activated protein kinase kinase kinase 7 (Homo sapiens) (UniProt O43318); assay: Inhibition of TAK1 (unknown origin) at 1 uM by Ambit Kinomescan binding assay relative to control; values are per cent of control
T2 sequence (whole entry): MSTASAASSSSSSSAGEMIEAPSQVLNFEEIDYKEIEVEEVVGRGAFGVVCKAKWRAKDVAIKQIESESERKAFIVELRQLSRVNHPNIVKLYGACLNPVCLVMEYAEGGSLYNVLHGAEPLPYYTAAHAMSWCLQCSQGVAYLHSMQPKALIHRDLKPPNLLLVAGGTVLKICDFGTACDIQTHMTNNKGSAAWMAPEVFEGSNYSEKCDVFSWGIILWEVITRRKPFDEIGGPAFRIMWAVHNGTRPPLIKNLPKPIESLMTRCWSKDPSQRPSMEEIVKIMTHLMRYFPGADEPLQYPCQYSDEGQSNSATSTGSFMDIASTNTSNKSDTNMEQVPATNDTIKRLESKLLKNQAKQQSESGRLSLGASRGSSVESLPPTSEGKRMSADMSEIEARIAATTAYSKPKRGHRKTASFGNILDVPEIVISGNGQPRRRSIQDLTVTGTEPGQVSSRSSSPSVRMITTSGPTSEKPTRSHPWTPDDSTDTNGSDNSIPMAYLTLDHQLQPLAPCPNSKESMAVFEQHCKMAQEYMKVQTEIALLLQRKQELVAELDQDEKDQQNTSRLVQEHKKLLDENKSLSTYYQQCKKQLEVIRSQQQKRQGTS

[8] = tested on: Receptor-type tyrosine-protein kinase FLT3 (Homo sapiens), P36888 [D835H]; assay: Inhibition of FLT3 D835H mutant (unknown origin) at 1 uM by Ambit Kinomescan binding assay relative to control; values are per cent of control
[9] = target: T3, Mixed lineage kinase domain-like protein (Homo sapiens) (UniProt Q8NB16); assay: Inhibition of MLKL Lys1 labeling site in human A-375 cells at 5 uM by KiNativ Profiling analysis relative to control; type: cell-based
T3 sequence (whole entry): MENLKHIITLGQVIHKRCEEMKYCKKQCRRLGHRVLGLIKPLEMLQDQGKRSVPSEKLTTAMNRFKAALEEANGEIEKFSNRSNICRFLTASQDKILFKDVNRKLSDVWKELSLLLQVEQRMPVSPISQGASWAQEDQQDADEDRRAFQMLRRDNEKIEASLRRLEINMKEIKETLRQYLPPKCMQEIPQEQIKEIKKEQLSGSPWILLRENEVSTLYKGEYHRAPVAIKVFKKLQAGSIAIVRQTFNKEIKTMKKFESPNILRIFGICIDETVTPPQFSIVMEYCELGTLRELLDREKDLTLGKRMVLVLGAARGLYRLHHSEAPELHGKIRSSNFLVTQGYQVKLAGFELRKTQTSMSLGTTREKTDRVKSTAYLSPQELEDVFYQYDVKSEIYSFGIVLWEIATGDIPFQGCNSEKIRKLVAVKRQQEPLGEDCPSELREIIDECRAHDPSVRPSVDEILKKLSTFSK

[10] = tested on: Epidermal growth factor receptor (Homo sapiens), P00533 [UNDEFINED MUTATION]; conditions: dose 1.0 µM
Epidermal growth factor receptor (Homo sapiens), P00533 [UNDEFINED MUTATION], sequence (P00533 whole entry, looked up, change not shown): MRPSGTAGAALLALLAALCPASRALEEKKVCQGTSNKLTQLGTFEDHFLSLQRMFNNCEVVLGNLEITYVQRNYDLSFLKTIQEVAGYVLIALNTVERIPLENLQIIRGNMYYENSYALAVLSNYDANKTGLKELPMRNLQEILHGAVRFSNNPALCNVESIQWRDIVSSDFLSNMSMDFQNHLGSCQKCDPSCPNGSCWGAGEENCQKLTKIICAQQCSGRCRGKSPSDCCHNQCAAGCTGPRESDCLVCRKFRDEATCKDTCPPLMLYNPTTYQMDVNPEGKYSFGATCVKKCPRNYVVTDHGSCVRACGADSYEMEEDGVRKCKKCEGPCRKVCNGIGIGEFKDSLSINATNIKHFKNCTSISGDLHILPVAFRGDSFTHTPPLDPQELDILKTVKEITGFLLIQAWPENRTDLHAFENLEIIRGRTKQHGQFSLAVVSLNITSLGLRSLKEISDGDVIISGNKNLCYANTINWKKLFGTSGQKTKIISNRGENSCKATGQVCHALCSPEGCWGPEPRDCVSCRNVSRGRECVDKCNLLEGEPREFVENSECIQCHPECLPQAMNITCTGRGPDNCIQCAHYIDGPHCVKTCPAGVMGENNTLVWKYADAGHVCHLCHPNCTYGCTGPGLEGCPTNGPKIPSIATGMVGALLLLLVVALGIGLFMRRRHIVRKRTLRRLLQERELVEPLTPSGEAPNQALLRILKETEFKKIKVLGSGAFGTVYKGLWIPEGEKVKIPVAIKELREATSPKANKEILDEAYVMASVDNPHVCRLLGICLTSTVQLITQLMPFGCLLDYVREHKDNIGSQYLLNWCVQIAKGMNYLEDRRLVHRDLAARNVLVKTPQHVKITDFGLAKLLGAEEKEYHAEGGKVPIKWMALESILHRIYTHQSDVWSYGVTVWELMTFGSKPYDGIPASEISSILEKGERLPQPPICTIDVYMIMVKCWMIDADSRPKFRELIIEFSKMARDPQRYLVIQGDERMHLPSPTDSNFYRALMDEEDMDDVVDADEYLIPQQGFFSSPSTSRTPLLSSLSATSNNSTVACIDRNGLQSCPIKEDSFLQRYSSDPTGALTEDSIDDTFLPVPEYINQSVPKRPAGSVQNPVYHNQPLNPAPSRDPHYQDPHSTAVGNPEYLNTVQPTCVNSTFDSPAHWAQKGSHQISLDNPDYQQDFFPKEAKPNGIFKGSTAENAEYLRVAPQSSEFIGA

[11] = target: Cytoplasmic tyrosine-protein kinase BMX (Homo sapiens) (UniProt P51813); assay: Inhibition of BMX (unknown origin) at 1 uM by Ambit Kinomescan binding assay relative to control; values are per cent of control
Cytoplasmic tyrosine-protein kinase BMX (Homo sapiens), sequence (P51813 whole entry): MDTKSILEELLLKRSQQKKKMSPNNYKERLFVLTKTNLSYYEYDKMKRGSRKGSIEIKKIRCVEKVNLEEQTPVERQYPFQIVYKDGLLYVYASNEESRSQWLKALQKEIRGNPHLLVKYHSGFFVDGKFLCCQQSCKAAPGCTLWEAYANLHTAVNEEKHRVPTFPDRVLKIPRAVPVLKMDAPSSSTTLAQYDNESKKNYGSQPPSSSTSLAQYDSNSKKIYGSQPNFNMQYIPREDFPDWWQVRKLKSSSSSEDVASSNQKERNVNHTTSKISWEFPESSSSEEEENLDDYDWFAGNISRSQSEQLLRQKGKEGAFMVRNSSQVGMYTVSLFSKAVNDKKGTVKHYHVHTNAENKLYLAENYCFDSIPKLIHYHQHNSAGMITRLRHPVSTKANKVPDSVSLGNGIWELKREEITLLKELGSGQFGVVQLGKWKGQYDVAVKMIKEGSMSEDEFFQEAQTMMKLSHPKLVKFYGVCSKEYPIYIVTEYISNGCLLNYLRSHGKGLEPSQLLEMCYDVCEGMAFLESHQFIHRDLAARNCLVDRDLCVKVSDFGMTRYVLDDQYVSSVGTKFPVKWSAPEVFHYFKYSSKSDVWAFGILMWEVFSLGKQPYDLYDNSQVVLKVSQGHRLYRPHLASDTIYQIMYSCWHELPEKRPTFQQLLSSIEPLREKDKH

[12] = target: Dual specificity mitogen-activated protein kinase kinase 1 (Homo sapiens) (UniProt Q02750); assay: Inhibition of MAP2K1 Lys2 labeling site harbouring IMHRDVKPSNILVNSR in human A-375 cells at 5 uM by KiNativ Profiling analysis relative to control; type: cell-based
Dual specificity mitogen-activated protein kinase kinase 1 (Homo sapiens), sequence (Q02750 whole entry): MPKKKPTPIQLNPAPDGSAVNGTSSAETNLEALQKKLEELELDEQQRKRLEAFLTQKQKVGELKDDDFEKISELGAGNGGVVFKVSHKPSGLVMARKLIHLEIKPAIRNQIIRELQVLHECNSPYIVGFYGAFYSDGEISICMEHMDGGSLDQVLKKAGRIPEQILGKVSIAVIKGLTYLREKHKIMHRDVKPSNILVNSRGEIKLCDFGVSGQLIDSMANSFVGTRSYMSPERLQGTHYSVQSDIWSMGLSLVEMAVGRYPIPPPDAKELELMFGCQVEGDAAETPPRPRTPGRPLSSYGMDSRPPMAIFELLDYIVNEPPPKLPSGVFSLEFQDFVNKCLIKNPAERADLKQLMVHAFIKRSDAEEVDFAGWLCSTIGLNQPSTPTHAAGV

[13] = Inhibition of KHS2 Lys1 labeling site in human Huh-7 cell lysate at 1 uM by KiNativ Profiling analysis relative to control; conditions: condition cancer
[14] = target: Aurora kinase B (Homo sapiens) (UniProt Q96GD4); assay: Inhibition of AurB ATP labeling site in human Huh-7 cell lysate at 1 uM by KiNativ Profiling analysis relative to control; type: subcellular
Aurora kinase B (Homo sapiens), sequence (Q96GD4 whole entry, the tested form may be a part): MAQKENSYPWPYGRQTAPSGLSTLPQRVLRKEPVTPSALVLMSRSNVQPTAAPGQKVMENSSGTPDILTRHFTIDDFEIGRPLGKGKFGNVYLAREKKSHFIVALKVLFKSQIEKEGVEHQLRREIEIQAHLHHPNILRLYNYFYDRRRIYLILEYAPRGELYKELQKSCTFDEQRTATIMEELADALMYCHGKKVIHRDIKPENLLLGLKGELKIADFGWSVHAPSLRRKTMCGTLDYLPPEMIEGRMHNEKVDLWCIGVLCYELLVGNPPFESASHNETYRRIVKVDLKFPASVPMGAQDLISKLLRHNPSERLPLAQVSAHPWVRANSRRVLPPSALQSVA

[15] = target: Ribosomal protein S6 kinase alpha-1 (Homo sapiens) (UniProt Q15418); assay: Inhibition of RSK1 domain 1 Lys2 labeling site harbouring DLKPENILLDEEGHIKLTDFGLSK in human Huh-7 cell lysate at 1 uM by KiNativ Profiling analysis relative to control; type: subcellular
[16] = target: 1-phosphatidylinositol 3-phosphate 5-kinase (Homo sapiens) (UniProt Q9Y2I7); assay: Inhibition of PIP5K3 ATP labeling site in human Huh-7 cell lysate at 1 uM by KiNativ Profiling analysis relative to control; type: subcellular

CCN1CCN(Cc2ccc(NC(=O)c3ccc(C)c(Oc4ccnc5[nH]ccc45)c3)cc2C(F)(F)F)CC1
inhibition at 10 µM [1]: 0.3% | inhibition [2]: 5.8% | inhibition [3]: 12.4% | percent of control [4]: 0.35% | inhibition [5]: 82.3%

CCN1CCN(Cc2ccc(NC(=O)c3ccc(C)c(/C=C/c4cnc5[nH]ccc5c4OC)c3)cc2C(F)(F)F)CC1
inhibition [6]: 8.5% | percent of control [7]: 1.2% | residual activity [8]: 2.6% | inhibition [9]: 3.2% | inhibition [10]: 0.5% | residual activity [11]: 1.6% | inhibition [12]: 34.7%

CNc1cc(Oc2cc(C(=O)Nc3cc(N4CCN(C)CC4)cc(C(F)(F)F)c3)ccc2C)ncn1
inhibition at 1 µM [13]: 0.9% | inhibition [14]: 2.5% | inhibition [15]: 3.1% | inhibition [16]: 0.7%
